According to paper PMC6801902, “Directed Evolution of Clostridium thermocellum β-Glucosidase A Towards Enhanced Thermostability” (International Journal of Molecular Sciences, 2019):

Tests used:
[1] = molecular target: C. thermocellum BglA (β-glucosidase A, Clo1313_2020) (Acetivibrio thermocellus, UniProt P26208); test: continuous p-nitrophenol release at OD405, nonlinear fit (GraphPad Prism); assay type: biochemical; settings: 50 mM citrate buffer pH 6.1, 60 °C, 0-25 mM pNPG, 13 nM enzyme; read-out: Wild Type
Chain of C. thermocellum BglA (β-glucosidase A, Clo1313_2020) (Acetivibrio thermocellus, UniProt P26208) (P26208 whole entry): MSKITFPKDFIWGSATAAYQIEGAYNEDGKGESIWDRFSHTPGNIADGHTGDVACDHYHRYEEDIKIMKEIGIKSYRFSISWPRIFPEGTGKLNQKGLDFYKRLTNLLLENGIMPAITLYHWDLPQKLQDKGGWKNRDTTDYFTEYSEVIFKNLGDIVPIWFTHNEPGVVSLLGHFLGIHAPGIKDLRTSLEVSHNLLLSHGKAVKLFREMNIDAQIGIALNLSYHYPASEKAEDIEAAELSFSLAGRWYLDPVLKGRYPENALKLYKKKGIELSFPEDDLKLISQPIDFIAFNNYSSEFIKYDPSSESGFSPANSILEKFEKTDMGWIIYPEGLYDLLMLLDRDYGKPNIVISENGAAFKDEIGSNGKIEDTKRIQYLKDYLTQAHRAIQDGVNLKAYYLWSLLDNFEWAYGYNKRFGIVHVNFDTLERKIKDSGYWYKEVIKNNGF
From the text: (§1) continuous p-nitrophenol release at OD405, nonlinear fit (GraphPad Prism) on C. thermocellum BglA (β-glucosidase A, Clo1313_2020)

[2] = molecular target: C. thermocellum BglA (β-glucosidase A, Clo1313_2020) (Acetivibrio thermocellus, UniProt P26208, A17S/K268N, form not given); test: as above; assay type: biochemical; settings: 50 mM citrate buffer pH 6.1, 60 °C, 0-25 mM pNPG, 13 nM enzyme; thermostable mutant Mut 1
Chain of C. thermocellum BglA (β-glucosidase A, Clo1313_2020) (Acetivibrio thermocellus, UniProt P26208, A17S/K268N, form not given) (P26208 whole entry A17S/K268N, form open): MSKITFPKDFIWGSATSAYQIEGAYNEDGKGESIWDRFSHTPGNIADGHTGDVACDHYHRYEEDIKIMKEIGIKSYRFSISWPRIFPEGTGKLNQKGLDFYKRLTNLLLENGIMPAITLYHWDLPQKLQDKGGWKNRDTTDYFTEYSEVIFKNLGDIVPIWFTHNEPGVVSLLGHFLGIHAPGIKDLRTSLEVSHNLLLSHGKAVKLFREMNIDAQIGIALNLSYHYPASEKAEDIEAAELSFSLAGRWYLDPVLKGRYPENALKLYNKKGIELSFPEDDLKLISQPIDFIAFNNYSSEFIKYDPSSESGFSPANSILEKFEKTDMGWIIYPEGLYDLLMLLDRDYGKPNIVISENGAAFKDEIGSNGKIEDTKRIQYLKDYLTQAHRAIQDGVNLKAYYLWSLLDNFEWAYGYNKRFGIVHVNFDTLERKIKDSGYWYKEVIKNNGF
From the text: as §1

In the case of O=[N+]([O-])c1ccc(O[C@@H]2O[C@H](CO)[C@@H](O)[C@H](O)[C@H]2O)cc1 [pNPG, p-nitrophenyl-β-D-glucopyranoside], the Km [1] is reported as 6.7 ± 1.11 mM and the Km [2] is reported as 5 ± 0.59 mM.
